system: P. falciparum strain 3D7; assay: In vitro potency against P. falciparum strain 3D7 (SYBR green/DAPI); assay type: cell-based; details: Plasmodium falciparum, reductions in parasitemia, read-out: IC50 values

IC50	SMILES
1 to 100 nM	NC1=Nc2ccccc2C1(O)c1cccc2ccccc12 (stereo not drawn) [Compound 10]
1 to 100 nM	NC1=Nc2ccc(Cl)cc2C1(O)c1cc(Cl)ccc1SC1CCC1 (stereo not drawn) [Compound 189]
100 to 500 nM	COc1ccccc1C1(O)C(N)=Nc2ccc(C)cc21 (stereo not drawn) [Compound 122]
100 to 500 nM	NC1=Nc2ccc(Cl)cc2C1(O)c1ccc2c(c1)OCO2 (stereo not drawn) [Compound 13]
1 to 100 nM	CCSc1ccc(OC)cc1C1(O)C(N)=Nc2ccc(Cl)cc21 (stereo not drawn) [Compound 196]
100 to 500 nM	NC1=Nc2ccc(Cl)cc2C1(O)c1ccc(F)cc1 (stereo not drawn) [Compound 83]
100 to 500 nM	NC1=Nc2ccc(Cl)cc2C1(O)c1ccnc2ccccc12 (stereo not drawn) [Compound 108]
100 to 500 nM	NC1=Nc2ccc(Cl)cc2C1(O)CCc1ccccc1 (stereo not drawn) [Compound 74]
100 to 500 nM	NC1=Nc2ccc(Cl)cc2C1(O)c1cccc(F)c1 (stereo not drawn) [Compound 28]
100 to 500 nM	Cn1ncc2ccc(C3(O)C(N)=Nc4ccc(Cl)cc43)cc21 (stereo not drawn) [Compound 138]
1 to 100 nM	Cc1ccc2c(c1)C(O)(c1cc(F)cc3ccccc13)C(N)=N2 (stereo not drawn) [Compound 268]
1 to 100 nM	CCCOc1cnc(OC)c(C2(O)C(N)=Nc3ccc(Cl)cc32)c1 (stereo not drawn) [Compound 218]
100 to 500 nM	NC1=Nc2ccc(Cl)cc2C1(O)c1ccc2ncsc2c1 (stereo not drawn) [Compound 148]
100 to 500 nM	Cn1cc(CC2(O)C(N)=Nc3ccccc32)c2ccccc21 (stereo not drawn) [Compound 128]
100 to 500 nM	Cc1ccc(C2(O)C(N)=Nc3ccc(Cl)cc32)c(C)c1 (stereo not drawn) [Compound 90]
1 to 100 nM	NC1=Nc2ccc(Cl)cc2C1(O)c1cc(F)ccc1SC1CC1 (stereo not drawn) [Compound 199]
100 to 500 nM	NC1=Nc2ccc(Cl)cc2C1(O)c1cccc2ncccc12 (stereo not drawn) [Compound 59]
1 to 100 nM	NC1=Nc2ccc(Cl)cc2C1(O)c1cc(SC2CCC2)ccc1F (stereo not drawn) [Compound 185]
1 to 100 nM	CN(C)c1ccc(C2(O)C(N)=Nc3ccc(Cl)cc32)c2ccccc12 (stereo not drawn) [Compound 68]
100 to 500 nM	NC1=Nc2ccccc2C1(O)c1cccc(C(F)(F)F)c1 (stereo not drawn) [Compound 19]
500 to 1000 nM	CC(C)c1ccc2c(c1)C(O)(c1ccccc1)C(N)=N2 (stereo not drawn) [Compound 53]
100 to 500 nM	COc1cccc(C2(O)C(N)=Nc3ccccc32)c1 (stereo not drawn) [Compound 7]
1 to 100 nM	COc1cccc(C2(O)C(N)=Nc3ccc(Cl)cc32)c1OC (stereo not drawn) [Compound 73]
100 to 500 nM	NC1=Nc2ccccc2C1(O)c1ccccc1 (stereo not drawn) [Compound 4]
1 to 100 nM	CCc1ccccc1C1(O)C(N)=Nc2ccc(Cl)cc21 (stereo not drawn) [Compound 97]

IC50	SMILES
500 to 1000 nM	CC(C)(C)c1ccc(C2(O)C(N)=Nc3ccccc32)cc1 (stereo not drawn) [Compound 6]
100 to 500 nM	COc1ccc(C2(O)C(N)=Nc3ccccc32)cc1 (stereo not drawn) [Compound 5]
100 to 500 nM	NC1=Nc2ccc(Cl)cc2C1(O)c1ccc2ccccc2c1 (stereo not drawn) [Compound 24]
1 to 100 nM	COc1cnc(OC)c(C2(O)C(N)=Nc3ccc(Cl)cc32)c1 (stereo not drawn) [Compound 201]
1 to 100 nM	Cc1ccccc1C1(O)C(N)=Nc2ccc(Cl)cc21 (stereo not drawn) [Compound 71]
100 to 500 nM	COc1cc2c(cc1OC)C(O)(c1ccccc1)C(N)=N2 (stereo not drawn) [Compound 56]
100 to 500 nM	NC1=Nc2ccc(Cl)cc2C1(O)c1cccc2cccnc12 (stereo not drawn) [Compound 58]
1000 to 5000 nM	NC1=Nc2c(Cl)cccc2C1(O)c1ccccc1 (stereo not drawn) [Compound 35]
5000 to 15000 nM	COc1cc(C2(O)C(N)=Nc3ccc(Cl)cc32)c2ccccc2c1 (stereo not drawn) [Compound 45]
1 to 100 nM	NC1=Nc2ccc(Cl)cc2C1(O)c1cc(F)ccc1C1CC1 (stereo not drawn) [Compound 200]
5000 to 15000 nM	NC1=Nc2ccc(Cl)cc2C1(O)c1ccc(O)cc1 (stereo not drawn) [Compound 85]
1 to 100 nM	CC(C)Sc1ccc(F)cc1C1(O)C(N)=Nc2ccc(Cl)cc21 (stereo not drawn) [Compound 183]
500 to 1000 nM	NC1=Nc2ccc(Cl)cc2C1(O)c1ccc(N2CCOCC2)cc1 (stereo not drawn) [Compound 17]
100 to 500 nM	COc1cc(C2(O)C(N)=Nc3ccc(Cl)cc32)c(F)cn1 (stereo not drawn) [Compound 233]
1 to 100 nM	CCSc1ccc(Cl)cc1C1(O)C(N)=Nc2ccc(Cl)cc21 (stereo not drawn) [Compound 171]
1 to 100 nM	CC(C)Oc1ccc(Cl)cc1C1(O)C(N)=Nc2ccc(Cl)cc21 (stereo not drawn) [Compound 156]
1000 to 5000 nM	NC1=Nc2ccc(Cl)cc2C1(O)C#Cc1ccccc1 (stereo not drawn) [Compound 237]
1000 to 5000 nM	N#Cc1ccc2c(c1)C(O)(c1ccccc1)C(N)=N2 (stereo not drawn) [Compound 88]
100 to 500 nM	COc1cnc(F)c(C2(O)C(N)=Nc3ccc(Cl)cc32)c1 (stereo not drawn) [Compound 207]
100 to 500 nM	COc1cc(C2(O)C(N)=Nc3ccc(Cl)cc32)c2c(cnn2C)c1 (stereo not drawn) [Compound 271]
100 to 500 nM	NC1Nc2ccc(-c3nccs3)cc2C1(O)c1ccccc1 (stereo not drawn) [Compound 105]
1 to 100 nM	CCOc1cc(F)c(Cl)cc1C1(O)C(N)=Nc2ccc(C)cc21 (stereo not drawn) [Compound 265]
100 to 500 nM	NC1=Nc2ccc(Cl)cc2C1(O)c1ccccc1Br (stereo not drawn) [Compound 118]
5000 to 15000 nM	COc1ccc2c(c1)C(O)(c1cc(OC)cc3ccccc13)C(N)=N2 (stereo not drawn) [Compound 61]
1 to 100 nM	COc1ccc(SC(C)C)c(C2(O)C(N)=Nc3ccc(Cl)cc32)c1 (stereo not drawn) [Compound 190]

IC50	SMILES
1 to 100 nM	NC1=Nc2ccc(Cl)cc2C1(O)c1ccccc1-c1ccccc1Br (stereo not drawn) [Compound 115]
1 to 100 nM	NC1=Nc2ccc(Cl)cc2C1(O)c1cc(F)ccc1OC1CCOCC1 (stereo not drawn) [Compound 213]
1 to 100 nM	CC(C)Oc1ccccc1[C@]1(O)C(N)=Nc2ccc(Cl)cc21 [Compound 222]
100 to 500 nM	CN(C)c1ncccc1C1(O)C(N)=Nc2ccc(Cl)cc21 (stereo not drawn) [Compound 236]
5000 to 15000 nM	NC1=Nc2ccc(O)cc2C1(O)c1ccccc1 (stereo not drawn) [Compound 62]
1 to 100 nM	Cn1ncc2cccc(C3(O)C(N)=Nc4ccc(Cl)cc43)c21 (stereo not drawn) [Compound 135]
1 to 100 nM	Cn1ncc2cc(Cl)cc(C3(O)C(N)=Nc4ccc(Cl)cc43)c21 (stereo not drawn) [Compound 258]
100 to 500 nM	CC(C)C1(O)C(N)=Nc2cccc(Cl)c21 (stereo not drawn) [Compound 227]
100 to 500 nM	NC1=Nc2ccc(Cl)cc2C1(O)c1ccc(C(F)(F)F)cc1 (stereo not drawn) [Compound 16]
1000 to 5000 nM	NC1=Nc2ccc(Cl)cc2C1(O)c1nccs1 (stereo not drawn) [Compound 60]
1 to 100 nM	COc1ccc(OC(C)C)c(C2(O)C(N)=Nc3ccc(Cl)cc32)c1 (stereo not drawn) [Compound 152]
100 to 500 nM	NC1=Nc2ccc(Cl)cc2C1(O)C1CC1 (stereo not drawn) [Compound 91]
100 to 500 nM	CC(C)(C)Sc1ccc(F)c(C2(O)C(N)=Nc3ccc(Cl)cc32)c1 (stereo not drawn) [Compound 188]
1 to 100 nM	COc1ccc2c(c1)C(O)(c1cc(Cl)ccc1C1CC1)C(N)=N2 (stereo not drawn) [Compound 253]
100 to 500 nM	NC1=Nc2ccc(-c3ccccc3)cc2C1(O)c1ccccc1 (stereo not drawn) [Compound 87]
500 to 1000 nM	Cc1ccc(C2(O)C(N)=Nc3ccc(Cl)cc32)cc1 (stereo not drawn) [Compound 22]
1 to 100 nM	CCOc1cc(Cl)ccc1C1(O)C(N)=Nc2ccc(Cl)cc21 (stereo not drawn) [Compound 259]
1 to 100 nM	NC1=Nc2ccc(Cl)cc2C1(O)c1ccccc1C(F)(F)F (stereo not drawn) [Compound 96]
1000 to 5000 nM	NC1=Nc2ccc(Cl)cc2C1(O)c1cccc2nsnc12 (stereo not drawn) [Compound 94]
500 to 1000 nM	COC(=O)c1ccc2c(c1)C(O)(c1ccccc1)C(N)=N2 (stereo not drawn) [Compound 110]
1 to 100 nM	Cc1ccc2c(c1)C(O)(c1cccc3ccsc13)C(N)=N2 (stereo not drawn) [Compound 143]
1 to 100 nM	Cc1ccc2c(c1)C(O)(c1cc(Cl)ccc1OC(C)(C)C)C(N)=N2 (stereo not drawn) [Compound 261]
1 to 100 nM	COc1cnc(OC)c(C2(O)C(N)=Nc3ccc(C)cc32)c1 (stereo not drawn) [Compound 254]
100 to 500 nM	Cc1cccc(C2(O)C(N)=Nc3ccc(Cl)cc32)c1C (stereo not drawn) [Compound 84]
1 to 100 nM	COc1ccc(OC2CC2)c(C2(O)C(N)=Nc3ccc(Cl)cc32)c1 (stereo not drawn) [Compound 165]

IC50	SMILES
1 to 100 nM	CCCOc1cnc(OC)cc1C1(O)C(N)=Nc2ccc(Cl)cc21 (stereo not drawn) [Compound 220]
100 to 500 nM	NC1=Nc2ccc(Cl)cc2C1(O)c1ccccc1Cl (stereo not drawn) [Compound 113]
500 to 1000 nM	CS(=O)(=O)c1ccccc1C1(O)C(N)=Nc2ccc(Cl)cc21 (stereo not drawn) [Compound 120]
100 to 500 nM	NC1=Nc2ccc(Cl)cc2C1(O)c1ccc(Cl)cc1 (stereo not drawn) [Compound 98]
5000 to 15000 nM	COc1cc(C2(O)C(N)=Nc3ccc(C)cc32)c2ccccc2c1 (stereo not drawn) [Compound 63]
100 to 500 nM	CC(C)C1(O)C(N)=Nc2cc(Cl)ccc21 (stereo not drawn) [Compound 230]
1 to 100 nM	COc1ccc(C2(O)C(N)=Nc3ccc(Cl)cc32)c(OC)c1 (stereo not drawn) [Compound 86]
5000 to 15000 nM	NC(=O)c1ccc2c(c1)C(O)(c1ccccc1)C(N)=N2 (stereo not drawn) [Compound 100]
1 to 100 nM	COc1ccc(OC2CCC2)c(C2(O)C(N)=Nc3ccc(Cl)cc32)c1 (stereo not drawn) [Compound 158]
1 to 100 nM	CC(C)Sc1ccccc1C1(O)C(N)=Nc2ccc(Cl)cc21 (stereo not drawn) [Compound 170]
1 to 100 nM	NC1=Nc2ccc(Cl)cc2C1(O)c1cc(Cl)ccc1OC1CCC1 (stereo not drawn) [Compound 157]
1 to 100 nM	NC1=Nc2ccc(Cl)cc2C1(O)c1cccc2c1OCC2 (stereo not drawn) [Compound 67]
5000 to 15000 nM	NC1=Nc2ccc(-c3cccnc3)cc2C1(O)c1ccccc1 (stereo not drawn) [Compound 99]
1 to 100 nM	CSc1ccc(Cl)cc1C1(O)C(N)=Nc2ccc(Cl)cc21 (stereo not drawn) [Compound 169]
1 to 100 nM	CCOc1cc(C2(O)C(N)=Nc3ccc(Cl)cc32)c(OC)cn1 (stereo not drawn) [Compound 228]
500 to 1000 nM	NC1=Nc2cc(Cl)ccc2C1(O)c1ccccc1 (stereo not drawn) [Compound 34]
1000 to 5000 nM	NC1=Nc2c(Cl)cc(Cl)cc2C1(O)c1ccccc1 (stereo not drawn) [Compound 55]
100 to 500 nM	C#Cc1ccc2c(c1)C(O)(c1ccc(C3(c4ccccc4)OCCO3)cc1)C(N)=N2 (stereo not drawn) [Compound 125]
500 to 1000 nM	CC(C)n1ncc2cccc(C3(O)C(N)=Nc4ccc(Cl)cc43)c21 (stereo not drawn) [Compound 172]
500 to 1000 nM	CCCCc1ccc2c(c1)C(O)(c1ccccc1)C(N)=N2 (stereo not drawn) [Compound 48]
100 to 500 nM	NC1=Nc2ccc(Cl)cc2C1(O)c1ccccc1F (stereo not drawn) [Compound 89]
100 to 500 nM	COc1ccc2c(c1)C(O)(c1ccccc1N1CCOCC1)C(N)=N2 (stereo not drawn) [Compound 167]
1 to 100 nM	NC1=Nc2ccc(Cl)cc2C1(O)c1cc2ccccc2o1 (stereo not drawn) [Compound 144]
1 to 100 nM	NC1=Nc2ccc(Cl)cc2C1(O)c1cc(F)ccc1OC1CC1 (stereo not drawn) [Compound 232]
